From patent US11644469B2, “HIF-1 and HIF-2 inhibitors” (UNIVERSITY OF SOUTHAMPTON, priority 2016, dated 2023)
Read-outs that look alike come from different tables or passages of the source. Residues, ends and D or L forms follow the SMILES beside them.

What was measured:
HIF-2α (Trx-2α, 2α PASB) [1] = target: T1, HIF-2α (Trx-2α, 2α PASB) (Homo sapiens, UniProt Q99814); test: Thermal shift assay, HIF-2α; format: binding; settings: 1 mM compound
T1 construct: 240-350; made in house
Protocol: (§1) The binding of the compounds to their targets was assessed by measuring changes in the melting temperature of their target proteins HIF-1α and HIF-2α (known as a thermal shift assay) and by microscale thermophoresis (MST). The data for the thermal shift assay is summarized in FIG. 1, while the binding constants (Kd) derived from MST is shown in FIG. 3. Compounds that are effective inhibitors decrease the melting temperatures of the proteins. […] The compounds may bind to HIF 1α/2α or 1β in order to disrupt the dimerization, and PASB may be the responsible domain.
(§2) Thermal shift data of thioredoxin-tagged longer constructs and PASB domains with the identified polypeptides are shown in FIG. 1. Compounds that are effective inhibitors decrease the melting temperatures of the proteins.
(§3) Thermal denaturation of HIF proteins was performed in 20 μL reactions in triplicate using a Bio-Rad CFX Connect Real-Time System. Proteins were used at either 5 μM (Trx-1α, Trx-2α and GST-1β) or 15 μM (His-tagged PASB domains) in HIF assay buffer, with 10 mM DTT and SYPRO orange dye (Life Technologies) at a final concentration of 8× (relative to 5000× stock), and supplemented with either DMSO or compound dissolved in DMSO at the stated concentrations. The reaction plate was assembled on ice, then transferred to the pre-chilled thermal cycler, held at 10° C. for 5 min (heated lid, 105° C.), then the temperature ramped to 95° C. Fluorescence was recorded at 0.5° C. increments, holding for 5 sec at each temperature. Data were plotted using GraphPad Prism 6, and melting temperatures calculated using the first derivative method in which the peak (i.e. the steepest transition between data points) represents the point at which 50% of the protein sample is denatured. Errors are quoted as the inherent error associated with the first derivative of the data, i.e. ±0.25° C. for Tm values and ±0.5° C. for ΔTm values.

HIF-2α (Trx-2α, 2α PASB) [2] = test: Thermal shift assay, HIF-2α; format: binding; settings: effective inhibitors decrease the melting temperature
Protocol: as §1, §2, §3

HIF-1α (Trx-1α, 1α PASB) [3] = target: T2, HIF-1α (Trx-1α, 1α PASB) (Homo sapiens, UniProt Q16665); test: Thermal shift assay, HIF-1α; format: binding; settings: 1 mM compound
T2 construct: 238-349; made in house
Protocol: as §1, §2, §3

HIF-1α (Trx-1α, 1α PASB) [4] = test: Thermal shift assay, HIF-1α; format: binding; settings: effective inhibitors decrease the melting temperature
Protocol: as §1, §2, §3

HIF-1β (GST-1β, 1β PASB) [5] = target: T3, HIF-1β (GST-1β, 1β PASB) (Homo sapiens, UniProt P27540); test: Thermal shift assay, HIF-1β (negative control); format: binding; settings: for activity against HIF-1β in thermal shift assay: negative control protein
T3 construct: 356-474; made in house
T3 sequence (P27540 356-474): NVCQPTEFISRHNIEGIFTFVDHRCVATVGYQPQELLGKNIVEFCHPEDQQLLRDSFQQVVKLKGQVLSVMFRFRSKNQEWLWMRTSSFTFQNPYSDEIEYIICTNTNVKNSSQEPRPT
Protocol: as §1, §2, §3

HIF-1β (GST-1β, 1β PASB) [6] = test: Thermal shift assay, HIF-1β (negative control); format: binding; settings: 1 mM compound; GST-1β 5 μM
Protocol: as §1, §2, §3

MCF-7 cells = test: Cell permeability and localisation by fluorescence microscopy; format: cell-based; settings: 24 hr
Protocol: FIGS. 10A-D and 10A′-D′ show cell permeability tested using fluorescently labeled-CRVIIF (SEQ ID NO 4) in MCF-7 cells.
For initial compound permeability experiments, 1.5 mL MCF-7 cells were plated on 3 cm petri dishes (200,000 cells/plate) and grown at 37° C. After 24 hr, cells were incubated with fresh media containing the stated concentrations of fluor-CRVIIF (SEQ ID NO 4) (0.5% DMSO) or 66 μM CP-61 control compound (0.66% DMSO) for a further 24 hr. Cells were washed twice with PBS and imaged live in plates. For co-localisation experiments, an 8-well Lab-Tek Chamber Slide (Nunc) was treated with collagen prior to plating 25,000 MCF-7 cells/well. After 24 hr, cells were dosed with 300 μL fresh media containing the stated concentrations of fluor-CRVIIF (SEQ ID NO 4) (0.5% DMSO) and/or 5 μg/mL FM 4-64FX Membrane Stain (Life Technologies) and incubated for a further 24 hr. Cells were washed with 2×300 μL PBS, fixed with 150 μL 10% formalin in PBS for 5-10 min, then washed again with PBS. Growth chambers were removed and nuclear staining was achieved using Vectashield Mounting Medium with DAPI (Vector Laboratories) prior to sealing the slide with a coverslip. Cells were imaged using a fluorescent microscope.

[7] = His-tagged PASB domain 15 μM, read-out: ΔTm 2α PASB
[8] = Trx-2α 5 μM, read-out: ΔTm Trx-2α
[9] = His-tagged PASB domain 15 μM, read-out: ΔTm 1α PASB
[10] = Trx-1α 5 μM, read-out: ΔTm Trx-1α
[11] = 1 mM compound, His-tagged PASB domain 15 μM

Row | Molecule | ΔTm at 1000 µM (HIF-2α (Trx-2α, 2α PASB) [1]; [7]) [°C] | ΔTm at 1000 µM (HIF-2α (Trx-2α, 2α PASB) [1]; [8]) [°C] | activity against HIF-2α in thermal shift assay (HIF-2α (Trx-2α, 2α PASB) [2]) | ΔTm at 1000 µM (HIF-1α (Trx-1α, 1α PASB) [3]; [9]) [°C] | ΔTm at 1000 µM (HIF-1α (Trx-1α, 1α PASB) [3]; [10]) [°C] | activity against HIF-1α in thermal shift assay (HIF-1α (Trx-1α, 1α PASB) [4]) | ΔTm at 1000 µM (HIF-1β (GST-1β, 1β PASB) [5]; [11]) [°C] | activity against HIF-1β in thermal shift assay (HIF-1β (GST-1β, 1β PASB) [5]) | ΔTm GST-1β (HIF-1β (GST-1β, 1β PASB) [6]) [°C] | ΔTm 2α PASB (HIF-2α (Trx-2α, 2α PASB) [1]; His-tagged PASB domain 15 μM) [°C] | ΔTm Trx-2α (HIF-2α (Trx-2α, 2α PASB) [1]; Trx-2α 5 μM) [°C] | ΔTm 1α PASB (HIF-1α (Trx-1α, 1α PASB) [3]; His-tagged PASB domain 15 μM) [°C] | ΔTm Trx-1α (HIF-1α (Trx-1α, 1α PASB) [3]; Trx-1α 5 μM) [°C] | ΔTm 1β PASB (HIF-1β (GST-1β, 1β PASB) [5]; [11]) [°C] | cell permeability (MCF-7 cells)
1 | CC[C@H](C)[C@@H]1NC(=O)[C@H](CC(C)C)NC(=O)[C@H](CCCCN)NC(=O)[C@H](CS)NC(=O)[C@H](Cc2ccccc2)NC(=O)[C@H]([C@@H](C)CC)NC1=O [CKLIIF] (cyclo(CKLIIF); ring closure inferred) | -2.5 | -2.5 | show activity | -1 | -1.5 | show activity | -0.5 | not against HIF-1β | – | – | – | – | – | – | –
2 | CC[C@H](C)[C@@H]1NC(=O)[C@H](CC(C)C)NC(=O)[C@H](CC(C)C)NC(=O)[C@H](CCCNC(=N)N)NC(=O)[C@H](CS)NC(=O)[C@H](Cc2ccccc2)NC1=O [CRLLIF, cyclo-CRLLIF] (cyclo(CRLLIF); ring closure inferred) | -4 | -4 | show activity | -2 | 0.5 | show activity | -1 | not against HIF-1β | – | – | – | – | – | – | –
3 | CC[C@H](C)[C@@H]1NC(=O)[C@H](C(C)C)NC(=O)[C@H](CCCNC(=N)N)NC(=O)[C@H](CS)NC(=O)[C@H](Cc2ccccc2)NC(=O)[C@H]([C@@H](C)CC)NC1=O [CRVIIF, cyclo-CRVIIF] (cyclo(CRVIIF); ring closure inferred) | -2.5 | -2 | show activity | -1.5 | -1 | show activity | -0.5 | not against HIF-1β | −0.5 | – | – | – | – | – | –
4 | SGWEMIQRR (cyclic; listed as Homo sapiens) | – | – | – | – | – | only active against HIF-1α | – | – | – | −2.5 | −2 | −0.5 | −2.5 | −0.5 | –
5 | fluor-CRVIIF: fluorescently labelled cyclo-CRVIIF; FITC-maleimide bound to the cysteine (cyclo(C(FITC‑maleimide)RVIIF); listed as Homo sapiens) | – | – | – | – | – | – | – | – | – | – | – | – | – | – | appears to cross cell membrane
